According to US6063803A, “Octahydropyrrolo-[3,4-c]carbazoles useful as analgesic agents” (Ortho-McNeil Pharmaceutical, Inc., priority 1999, dated 2000):

Assays:
α1-adrenergic receptor = α1-adrenergic receptor binding (3H-prazosin displacement, rat cortex membranes); design: species or system rat (Wistar); details: 3H-prazosin 0.05 nM, 25° C., 20 min
Description: Charles River male Wistar (virus-free) rats were group housed for approximately one week and given food and water (Wayne Lab Blox) ad libitum. Animals were exposed to equal hours(12--12) of dark and light and used at a weight range of 150-280 g (8 to 10 weeks of age). Rats were sacrificed by cervical dislocation and their brains were rapidly excised and immediately placed on ice. The cortex was removed, weighed, and used immediately or frozen on dry ice.
The frozen tissue was homogenized in 20 volumes of HEPES buffered sucrose (10 mM HEPES, 300 mM sucrose, pH 7.5) using a motor driven Teflon pestle/glass homogenizer (all homogenates and solutions were maintained at 4-8° C.). The homogenate was centrifuged at 1000×g for 10 minutes, and the supernatant was recentrifuged at 48,000×g for 10 min. […]
The samples were incubated in a 25° C. water bath for 20 min, harvested on a Brandel Cell Harvester on to Wallac filtermat-B sheets (96 sample format), washed three times with 2 mL cold HEPES-buffer (10 mM, pH 7.5), and dried in a microwave oven. To each sample area 80 ul of Betaplate Scint scintillation fluid (LKB) was added and analyzed on a LKB (Wallac) 1205 BetaPlate liquid scintillation counter.
The data were used to calculate either the % inhibition compared to control binding (a single concentration of test compound is evaluated) or a Ki value (a range of concentrations are tested). […]

[1] = mouse acetylcholine bromide-induced abdominal constriction assay; assay type: in vivo, mice (Male, Cr1:CD-1)
Experimental: The analgesic activity of compounds of Formula I were determined in the following in vivo assay. The procedure was run essentially as described by H. Collier et al. in B. J. Pharmacol. Chemother., 32: 295-310, 1968, with minor modifications. Mice (Male, Cr1:CD-1, Charles River Laboratories) were used in the following example. The test drugs or appropriate vehicle were administered orally (10 mL/kg, p.o.) or subcutaneously (10 mL/kg, s.c.) and 30 minutes later the animal received an intraperitoneal (i.p.) injection of 5.5 mg/kg acetylcholine bromide. The mice were then placed in glass bell jars and observed for a ten minute observation period for the occurrence of an abdominal constriction response (defined as a wave of constriction and elongation passing caudally along the abdominal wall, accompanied by a twisting of the trunk and followed by extension of the hind limbs). The percent inhibition of this response to antinociceptive stimulus (equated to % analgesia) was calculated as follows: The % inhibition of response, i.e., % analgesia is equal to the number of non-responding drug-treated animals×100 divided by the number of animals in the group.
The ED50 values and their 95% fiducial limits were determined by a computer assisted probit analysis. […] This effect lasted for 4-5 hours.
Table A lists the % inhibition for some compounds of the invention. Unless otherwise indicated the compounds were administered s.c. at 30 mg/kg. [drawing 63]

[2] = rat air-induced writhing (abdominal constriction) assay; assay type: in vivo, rats; details: rat air-induced writhing
Experimental: The analgesic activity was determined in another model using rats as the test animal. The procedure was essentially described by P. VonVoightlander et al. in Air-induced Writhing, a Rapid Broad Spectrum Assay for Analgesics, Drug Dev. Res., 2, 577-81, (1982). The test compound or vehicle was administered p.o. (2 mL/kg) and after 30 min, the animals received an i.p. injection of air (10 mL). The animals were placed into individual observation chambers and observed for 30 min for the occurrence of abdominal constriction as defined above. The percent inhibition of this response was calculated as follows. The % inhibition of response, i.e., % analgesia is equal to the number nonresponding drug-treated animals×100 divided by the number of animals in the group. […] This effect lasted for 2-3 hours.

[3] = mouse abdominal constriction, oral dosing

CN1CC2CCc3[nH]c4ccccc4c3C2C1 (single isomer, unassigned) [Compound 58]
Ki (α1-adrenergic receptor): 61 nM | responders at 30 mg/kg ([1]; Mus musculus, 0.5 h, 30 mg/kg po, acetylcholine bromide 5.5 mg/kg i.p. 30 min later, read-out: % inhibition @ 30 mg/kg (po)): 100% | analgesic effect observed, time after oral dosing [1, 3]: 15 min | duration of analgesic effect [1, 3]: 4 to 5 h | ED50 ([1]; mouse acetylcholine abdominal constriction, probit analysis, read-out: ED50): 5.8 mg/kg | ED50 ([2]; po, p.o., read-out: ED50): 23.1 mg/kg | analgesic effect observed, time after oral dosing ([2]; oral dosing): 30 min | duration of analgesic effect ([2]; oral dosing): 2 to 3 h
